The results in this text go back to ChEMBL document CHEMBL6096696, “Structure-Activity Relationship Studies of an Autophagy Inhibitor That Targets the ATG14L-Beclin1 Protein-Protein Interaction Reveal Modifications That Improve Potency and Solubility and Maintain Selectivity” (J Med Chem, 2025).

Data set [1] deals with HEK293T. The experiment in a line: Inhibition of C-terminal Nano-luc tagged ATG14L/C-terminal Halo-tagged Beclin 1 (unknown origin) PPI tranfected with HEK293T cells using […] at 100 uM incubated for 24 hrs by […] assay relative to control. Type of data set: cell-based. The conditions noted are these: Homo sapiens, values are per cent of control.
Data set [2] can be described thus: Kinetic aqueous solubility of compound in PBS at pH 7.4 by absorbance based analysis. The class given is physicochemical. The conditions noted are these: read-out: Kinetic_solubility.
Data set [3] has as its system HEK293T. Kind of data set: Inhibition of C-terminal Nano-luc tagged UVRAG/C-terminal Halo-tagged Beclin 1 (unknown origin) PPI tranfected with HEK293T cells using […] at 100 uM incubated for 24 hrs by […] assay relative to control. The conditions noted are these: Homo sapiens, values are per cent of control. The class given is cell-based.
Data set [4] can be described thus: Selectivity ratio of inhibition of C-terminal Nano-luc tagged UVRAG/C-terminal Halo-tagged Beclin 1 (unknown origin) PPI tranfected with HEK293T cells to inhibition of C-terminal Nano-luc tagged ATG14L/C-terminal Halo-tagged Beclin 1 (unknown origin) PPI tranfected with HEK293T cells.

Converted amounts (≈) assume the structure as drawn.

With `CCCN1C(=O)COc2ccc(Nc3cccc(Br)c3)cc21`, the residual binding, % of control in data set [1] came to 101%; in data set [3], 116%. Also, the solubility kinetic in data set [2] worked out at 50 µM (≈ 18.1 µg/mL). Also, in data set [4], the Selectivity ratio was found to be 1.14.
In the case of `Cc1cccc(NS(=O)(=O)c2ccc3c(c2)OCC(=O)N3Cc2ccccn2)c1C`, the residual binding, % of control in data set [1] was 112%. In addition, in data set [2], the solubility kinetic is greater than 100 µM.
In the same order, the values of `CCCN1C(=O)COc2ccc(NS(=O)(=O)c3ccc(F)cc3C)cc21` are 99.8% and greater than 100 µM.
For the molecule `Cc1ccccc1-c1ccc2c(c1)N(Cc1noc(C3CCC3)n1)C(=O)CO2`, the values for the residual binding, % of control in data set [1] and in data set [3] were 109% and 110%, respectively. Moreover, the solubility kinetic in data set [2] was greater than 100 µM. The Selectivity ratio in data set [4] was 1.01.
In the case of `CCCN1C(=O)COc2ccc(NS(=O)(=O)c3ccccc3)cc21`, in data set [1], the residual binding, % of control came out at 89.2%. Further, the solubility kinetic in data set [2] is greater than 100 µM.
Turning to `CCCN1C(=O)COc2ccc(S(=O)(=O)Nc3ccccc3Br)cc21`, the residual binding, % of control in data set [1] amounted to 132%. In addition, the solubility kinetic in data set [2] was greater than 100 µM.
`CCCN1C(=O)COc2ccc(NC(=O)c3ccccc3Br)cc21`: the residual binding, % of control in data set [1] is 119%. The solubility kinetic in data set [2] is greater than 100 µM.
The like results for `CCCN1C(=O)COc2ccc(NS(=O)(=O)c3cccc(C)c3)cc21` were, in that order, 96.2% and greater than 100 µM.
In the same order, the values of `CCCN1C(=O)COc2ccc(S(=O)(=O)Nc3cccc(Cl)c3C)cc21` are 131% and greater than 100 µM.
The molecule `CCCN1C(=O)COc2ccc(NS(=O)(=O)c3cccc(C)c3C)cc21` returned a residual binding, % of control in data set [1] of 83.2%. Further, the solubility kinetic in data set [2] is greater than 100 µM.
In the same order, the values of `CCCN1C(=O)COc2ccc(NC(=O)c3cccc([N+](=O)[O-])c3)cc21` are 104% and greater than 100 µM.
Consider `O=C1COc2ccc(-c3ccccc3)cc2N1Cc1noc(C2CCC2)n1`, for which the residual binding, % of control in data set [1] amounted to 98.7%; in data set [3], 105%. In addition, the solubility kinetic in data set [2] is greater than 100 µM. Besides, the Selectivity ratio in data set [4] is 1.06.
Consider `CCCN1C(=O)COc2ccc(NS(=O)(=O)c3c(C(C)C)cc(C(C)C)cc3C(C)C)cc21`, for which the residual binding, % of control in data set [1] is 59.9%. Moreover, in data set [2], the solubility kinetic is greater than 100 µM.
As to `O=C1COc2ccc(-c3cccc(F)c3F)cc2N1Cc1noc(C2CCC2)n1`, the residual binding, % of control in data set [1] turned out to be 85.1%; in data set [3], 94.8%. Further, the solubility kinetic in data set [2] is greater than 100 µM. Further, in data set [4], the Selectivity ratio stood at 1.11.
For `Cc1cccc(NS(=O)(=O)c2ccc3c(c2)OCC(=O)N3Cc2ccco2)c1C`, in data set [1], the residual binding, % of control was found to be 109%. Besides, in data set [2], the solubility kinetic was greater than 100 µM.
As for `Cc1cccc(NS(=O)(=O)c2ccc3c(c2)OCC(=O)N3Cc2ccccc2)c1C`, the residual binding, % of control in data set [1] turned out to be 105%. The solubility kinetic in data set [2] turned out to be 50 µM (≈ 21.1 µg/mL).
Consider `O=C1COc2ccc(-c3cccc(OC(F)(F)F)c3)cc2N1Cc1noc(C2CCC2)n1`, for which the residual binding, % of control in data set [1] came out at 105%; in data set [3] it was 110%. Besides, the solubility kinetic in data set [2] is greater than 100 µM. Further, in data set [4], the Selectivity ratio was 1.05.
For `CCCN1C(=O)COc2ccc(Nc3ccccc3Br)cc21`, the figures for the residual binding, % of control in data set [1] and in data set [3] were 82.9% and 108%, respectively. The solubility kinetic in data set [2] was greater than 100 µM. In addition, the Selectivity ratio in data set [4] is 1.49.
`CCCN1C(=O)COc2ccc(S(=O)(=O)Nc3cccc(N4CCOCC4)c3)cc21` had a residual binding, % of control in data set [1] of 108%. Besides, the solubility kinetic in data set [2] is greater than 100 µM.
As to `CCCN1C(=O)COc2ccc(Nc3cccc(C)c3C)cc21`, the residual binding, % of control came out at 104% in data set [1] and 108% in data set [3]. For the same molecule, the solubility kinetic in data set [2] is greater than 100 µM. Moreover, in data set [4], the Selectivity ratio came to 1.04.
`CCCN1C(=O)COc2ccc(NC(=O)c3ccccc3)cc21` registered a residual binding, % of control in data set [1] of 106%. For the same molecule, the solubility kinetic in data set [2] is greater than 100 µM.
`CCCN1C(=O)COc2ccc(NS(=O)(=O)c3cccc(C(F)(F)F)c3)cc21`: in data set [1], the residual binding, % of control was 80%. Moreover, the solubility kinetic in data set [2] is greater than 100 µM.
`COc1ccccc1-c1ccc2c(c1)N(Cc1noc(C3CCC3)n1)C(=O)CO2`: the residual binding, % of control in data set [1] stood at 98.3%; in data set [3] it was 104%. In data set [2], the solubility kinetic is greater than 100 µM. For the same molecule, the Selectivity ratio in data set [4] worked out at 1.06.
As to `Cc1cccc(Nc2ccc3c(c2)N(Cc2noc(C4CCC4)n2)C(=O)CO3)c1C`, the residual binding, % of control in data set [1] was 79.3%; in data set [3] it was 119%. Besides, the solubility kinetic in data set [2] is greater than 100 µM. For the same molecule, in data set [4], the Selectivity ratio came out at 1.5.
On to `CCCN1C(=O)COc2ccc(NS(=O)(=O)c3cccc(Br)c3)cc21`, for which the residual binding, % of control in data set [1] was found to be 101%. Besides, the solubility kinetic in data set [2] is greater than 100 µM.
In the case of `CCCN1C(=O)COc2ccc(Nc3cccc(Cl)c3C)cc21`, the residual binding, % of control was 101% in data set [1] and 104% in data set [3]. In addition, in data set [2], the solubility kinetic was 50 µM (≈ 16.5 µg/mL). Moreover, the Selectivity ratio in data set [4] was found to be 1.02.
`CCCN1C(=O)COc2ccc(NS(=O)(=O)c3ccccc3Br)cc21` had a residual binding, % of control in data set [1] of 88.1%. In addition, the solubility kinetic in data set [2] is greater than 100 µM.
The like results for `CCCCN1C(=O)COc2ccc(S(=O)(=O)Nc3cccc(C)c3C)cc21` were, in that order, 110% and greater than 100 µM.
`CCCN1C(=O)COc2ccc(NC(=O)c3ccc(Cl)cc3Cl)cc21` came in with a residual binding, % of control in data set [1] of 109%. Further, in data set [2], the solubility kinetic was determined as 50 µM (≈ 19 µg/mL).
The like results for `CCCN1C(=O)COc2ccc(NS(=O)(=O)c3ccc(Cl)cc3Cl)cc21` were, in that order, 101% and greater than 100 µM.
With `CCCN1C(=O)COc2ccc(Nc3ccccc3)cc21`, the residual binding, % of control in data set [1] amounted to 75.8%; in data set [3] it was 116%. Further, in data set [2], the solubility kinetic is greater than 100 µM. Further, in data set [4], the Selectivity ratio came out at 1.54.
`Cc1cccc(NS(=O)(=O)c2ccc3c(c2)N(C)C(=O)CO3)c1C` came in with a residual binding, % of control in data set [1] of 106%. For the same molecule, the solubility kinetic in data set [2] was greater than 100 µM.
In the same order, the values of `CCCN1C(=O)COc2ccc(S(=O)(=O)N3CCOCC3)cc21` are 110% and greater than 100 µM.
The like results for `CCCN1C(=O)COc2ccc(S(=O)(=O)Nc3ccccc3)cc21` were, in that order, 134% and greater than 100 µM.
`CCCN1C(=O)COc2ccc(NC(=O)Cc3ccccc3)cc21` came in with a residual binding, % of control in data set [1] of 127%. The solubility kinetic in data set [2] was greater than 100 µM.
Consider `Cc1cccc(-c2ccc3c(c2)N(Cc2noc(C4CCC4)n2)C(=O)CO3)c1`, for which the figures for the residual binding, % of control in data set [1] and in data set [3] were 90.8% and 102%, respectively. The solubility kinetic in data set [2] was greater than 100 µM. Also, the Selectivity ratio in data set [4] was determined as 1.13.
On to `Cc1c(Cl)cccc1Nc1ccc2c(c1)N(Cc1noc(C3CCC3)n1)C(=O)CO2`, for which the results for the residual binding, % of control in data set [1] and in data set [3] were 83.9% and 118%, respectively. For the same molecule, the solubility kinetic in data set [2] is 100 µM (≈ 42.5 µg/mL). The Selectivity ratio in data set [4] stood at 1.4.
As for `Cc1cccc(NS(=O)(=O)c2ccc3c(c2)OCC(=O)N3CCc2ccccc2)c1C`, the residual binding, % of control in data set [1] turned out to be 103%. For the same molecule, the solubility kinetic in data set [2] was greater than 100 µM.
Take `O=C1COc2ccc(-c3cccc(F)c3)cc2N1Cc1noc(C2CCC2)n1`: the residual binding, % of control in data set [1] came to 90.3%; in data set [3] it was 101%. The solubility kinetic in data set [2] was 50 µM (≈ 19 µg/mL). Besides, the Selectivity ratio in data set [4] turned out to be 1.11.
The molecule `CCCN1C(=O)COc2ccc(S(=O)(=O)Nc3c(C)cccc3C)cc21` returned a residual binding, % of control in data set [1] of 105%. Besides, the solubility kinetic in data set [2] was greater than 100 µM.
On to `CC(C)c1cccc(-c2ccc3c(c2)N(Cc2noc(C4CCC4)n2)C(=O)CO3)c1`, for which the residual binding, % of control in data set [1] turned out to be 81.6%; in data set [3], 99.1%. Further, the solubility kinetic in data set [2] was greater than 100 µM. For the same molecule, the Selectivity ratio in data set [4] was 1.21.
The molecule `CCCN1C(=O)COc2ccc(S(=O)(=O)Nc3cccc(Cl)c3)cc21` displayed a residual binding, % of control in data set [1] of 145%. Also, the solubility kinetic in data set [2] was greater than 100 µM.
Turning to `CCCN1C(=O)COc2ccc(NC(=O)c3cccc(Br)c3)cc21`, the residual binding, % of control in data set [1] is 112%. In addition, the solubility kinetic in data set [2] was greater than 100 µM.
The molecule `CCCN1C(=O)COc2ccc(S(=O)(=O)Nc3cc(OC)ccc3OC)cc21` gave a residual binding, % of control in data set [1] of 107%. Further, in data set [2], the solubility kinetic is greater than 100 µM.
With `Cc1cccc(NS(=O)(=O)c2ccc3c(c2)N(CC(C)O)C(=O)CO3)c1C` (centres undefined), the residual binding, % of control in data set [1] came to 107%. In addition, the solubility kinetic in data set [2] is greater than 100 µM.
In the same order, the values of `CCCN1C(=O)COc2ccc(S(=O)(=O)Nc3ccccc3F)cc21` are 147% and greater than 100 µM.
In data set [1], `CCCN1C(=O)COc2ccc(S(=O)(=O)NCc3ccccc3)cc21` returned a residual binding, % of control of 116%. Besides, the solubility kinetic in data set [2] is greater than 100 µM.
The like results for `CCCN1C(=O)COc2ccc(S(=O)(=O)N3CCCCC3)cc21` were, in that order, 109% and greater than 100 µM.
The like results for `CCCN1C(=O)COc2ccc(NS(=O)(=O)c3cccc(OC)c3)cc21` were, in that order, 99.8% and greater than 100 µM.
The like results for `Cc1cccc(NS(=O)(=O)c2ccc3c(c2)N(CC2CCCCC2)C(=O)CO3)c1C` were, in that order, 106% and greater than 100 µM.
With `CCCN1C(=O)COc2ccc(NC(=O)c3cccc(C)c3C)cc21`, the residual binding, % of control in data set [1] was found to be 92%. Moreover, the solubility kinetic in data set [2] was greater than 100 µM.
The like results for `CCCN1C(=O)COc2ccc(NS(=O)(=O)c3cc(OC)ccc3OC)cc21` were, in that order, 103% and greater than 100 µM.
